Measured values published in patent EP4692088A1, “COMPOUND ACTING AS WRN HELICASE INHIBITOR” (SHANGHAI JEYOU PHARMACEUTICAL CO., LTD., priority 2023, dated 2024).

How the values were obtained:
HCT116 = test: γH2AX induction assay (HTRF Phospho-H2AX), HCT116; format: cell-based; conditions: Homo sapiens, HCT-116, incubated for 2-3 days, read-out: γ-H2AX induction HCT-116 (EC50 nM)
Description: (§1) SW48, HCT116, and SW620 cells were plated into 96-well cell culture plates at a density of 15,000-25,000 cells/well and cultured overnight in a 37°C incubator. The test compounds, which were gradient-diluted with DMSO, were added and incubated for 2-3 days. The γ-H2AX level was detected using HTRF Phospho-H2AX (SER139) Detection Kits. The 4× Lysis buffer and Detection buffer were equilibrated to room temperature for later use. The 4× Lysis buffer was diluted to 1× Lysis buffer using ddH2O. After the medium was aspirated, 50 µL of 1× Lysis buffer was added to each well and shaken at room temperature for 30 minutes for lysis. 16 µL of lysate was transferred to a 384-well plate, followed by the addition of 4 µL of diluted antibody mixture (Phospho-H2AX d2 antibody and Phospho-H2AX Eu Cryptate antibody were each diluted 20-fold using Detection buffer, and the two antibodies were then mixed uniformly at a 1:1 volume ratio). The mixture was incubated at room temperature for 2-24 h, and fluorescence signals at […] and 615 nm were detected using a microplate reader. Parallel treatment plates were simultaneously set up in the experiment, and cell viability was detected using the CellTiter-Glo kit. The CellTiter-Glo reagent was equilibrated to room temperature, and an appropriate amount was added to the cell plate, followed by shaking at room temperature for 12 min. The luminescence signal was detected using a microplate reader.
(§2) The fluorescence signal values of DMSO-treated wells and positive drug-treated wells were used as negative and positive controls, respectively, to calculate the level of γ-H2AX induced by the compounds. The concentration-induction rate curve was fitted using the "log(agonist) vs. response -- Variable slope (four parameters)" equation in GraphPad Prism 8 software to obtain the EC50. [formula] [formula]

SW48 = test: γH2AX induction assay (HTRF Phospho-H2AX), SW48; format: cell-based; conditions: Homo sapiens, SW-48, incubated for 2-3 days, read-out: γ-H2AX induction SW-48 (EC50 nM)
Description: as §1, §2

SW620 cells = test: γH2AX induction assay (HTRF Phospho-H2AX), SW620; format: cell-based; conditions: Homo sapiens, SW-620 (MSS), incubated for 2-3 days, read-out: γ-H2AX induction SW-620 (EC50 nM)
Description: as §1, §2

[1] = Pharmacokinetic test in mice; format: in vivo; conditions: mouse; CD-1 mice, male, oral gavage, 10 mg/kg, plasma
Description: CD-1 mice were taken as test animals. Example 4, Example 22, and Comparative Example HRO761 were given by gavage. The drug concentrations in mouse plasma at different time points were determined by LC-MS/MS to investigate the pharmacokinetic characteristics of the compounds of the present disclosure in mice.
• Experimental drugs: Example 4, Example 22, and Comparative Example HRO761; • Animals: CD-1 mice, male, 24-25 g, purchased from Shanghai Jihui Laboratory Animal Care Co.,Ltd.
An appropriate amount of Example 4, Example 22, and Comparative Example HRO761 was weighed and sequentially added to an appropriate amount of dimethyl sulfoxide, solutol, and saline (final solvent: 5% DMSO + 10% solutol + 85% saline). The mixture was vortexed and sonicated to prepare a 1.0 mg/mL dosing solution.
Three mice in gavage groups of Example 4, Example 22, and Comparative Example HRO761 were administered by oral gavage after overnight fasting (dose: 10 mg/kg, administration volume: 10 mL/kg), and the mice were fed 4 h after administration.
(§3) 0.04 mL of blood was collected from the animals before administration and at 0.083 h, 0.25 h, 0.5 h, 1 h, 2 h, 4 h, 6 h, 8 h, and 24 h after administration, and anticoagulated with sodium heparin. Blood samples were placed on ice after collection, and plasma was separated by centrifugation (centrifugation conditions: 8000 rpm, 5 min). The collected plasma was stored at -80°C before analysis.
LC-MS/MS was used to determine the content of the test compound in mouse plasma after intragastric administration.
(§4) Based on the calculated concentrations of the compounds in plasma at different time points, the pharmacokinetic parameters of Example 4, Example 22, and Comparative Example HRO761 in mice were calculated using winnonlin software. The pharmacokinetic parameters of Example 4, Example 22, and Comparative Example HRO761 of the present disclosure are shown in Table 13.

[2] = Pharmacokinetic test in rats; format: in vivo; conditions: rat; SD rats, male, oral gavage, 10 mg/kg, plasma
Description: SD rats were taken as test animals. Example 4, Example 15, and Comparative Example HRO761 were given by gavage. The drug concentrations in rat plasma at different time points were determined by LC-MS/MS to investigate the pharmacokinetic characteristics of Example 4, Example 15, and Comparative Example HRO761 in rats.
• Experimental drugs: Example 4, Example 15, and Comparative Example HRO761; • Animals: SD rats, male, 240-260 g, purchased from Shanghai Jihui Laboratory Animal Care Co.,Ltd.
An appropriate amount of Example 4, Example 15, and Comparative Example HRO761 was weighed and added to an appropriate amount of dimethyl sulfoxide, solutol, and saline (final solvent: 5% DMSO + 10% solutol + 85% saline). The mixture was vortexed and sonicated to prepare a 1.0 mg/mL dosing solution.
The rats in gavage groups (3 rats per group) of Example 4, Example 15, and Comparative Example HRO761 were administered by oral gavage after overnight fasting (dose: 10 mg/kg, administration volume: 10 mL/kg), and the rats were fed 4 h after administration.
as §3, with “0.2” for “0.04”
The contents of Example 4, Example 15, and Comparative Example HRO761 in rat plasma after oral administration were determined by LC-MS/MS.
as §4, with “15,” for “22,”, “rats” for “mice”, “14.” for “13.”

Structure (SMILES) | EC50 (HCT116) | EC50 (SW48) | EC50 (SW620 cells) | AUC(0-inf) [1] | Cmax [1] | AUC(0-inf) [2] | Cmax [2]
CCc1c(N2CCN(C(=O)c3ncnc(C)c3O)CC2)c(=O)c2nn(C3=CCOCC3)nc2n1CC(=O)Nc1ccc(C(F)(F)F)cc1Cl [Example 4] | 128 nM | 53.8 nM | > 10000 nM | 51500 ng·h/mL | 24800 ng/mL | 170000 ng·h/mL | 19200 ng/mL
CCc1c(N2CCN(C(=O)c3ncnc(C)c3O)CC2)c(=O)c2nn(C3=CCOCC3)nc2n1CC(=O)Nc1cc(F)c(C(F)(F)F)cc1Cl [Example 15] | 97.1 nM | 62.9 nM | > 10000 nM | – | – | 46400 ng·h/mL | 9020 ng/mL
CCc1c(N2CCN(C(=O)c3ncnc(C)c3O)CC2)c(=O)c2nn(C3=CCOCC3)nc2n1CC(=O)Nc1cc(F)c(Cl)cc1Cl [Example 22] | 168 nM | 128 nM | > 10000 nM | 83400 ng·h/mL | 24600 ng/mL | – | –
